# Test results as given in patent US12410208B2, “(2-acetamidyl)thio-beta-D-galactopyranoside derivatives” (Idorsia Pharmaceuticals Ltd, priority 2020, dated 2025).
# Read-outs that look alike come from different tables or passages of the source.
# Assays:
# [1] = biological target: biotinylated human Gal-3 (hGal-3) (Homo sapiens, UniProt P17931); experiment: Competitive binding assay: biotinylated hGal-3 binding to microplate-adsorbed asialofetuin (ASF), spectrophotometric
# Protocol: If not explicitly mentioned otherwise, the inhibition data refer to the binding of biotinylated human Gal-3 (hGal-3).
# (§1) Biological Assay Evaluation of Compound Inhibitory Activity (IC50)
# The inhibitory activity of compounds is determined in competitive binding assays.
# Briefly, compounds are serially diluted in DMSO (working dilutions).
# (§2) Plates are incubated for 3 hours at 4° C., then washed with cold assay buffer (3×50 uL), incubated for 1 hour with 25 μL/well of a streptavidin-peroxidase solution (diluted in assay buffer to 80 ng/mL) at 4° C., followed by further washing steps with assay buffer (3×50 uL). Finally, 25 μL/well of ABTS substrate is added.
# (§3) The calculated IC50 values may fluctuate depending on the daily assay performance. Fluctuations of this kind are known to those skilled in the art. IC50 values from several measurements are given as mean values.
# human Gal-1 (hGal-1) = human Gal-1 (hGal-1) (Homo sapiens, UniProt P09382); experiment: Competitive binding assay: biotinylated hGal-1 binding to microplate-adsorbed asialofetuin (ASF), spectrophotometric; conditions: hGal-1 binding to asialofetuin; Table 15; R and S epimers of selected Examples also listed; read-out: IC50 (Galectin-1 inhibition)
# Protocol: as §1
# The inhibitory activity of compounds is determined in competitive binding assays. This spectrophotometric assay measures the binding of biotinylated human Gal-3 (hGal-3) or human Gal-1 (hGal-1), respectively, to a microplate-adsorbed glycoprotein, asialofetuin (ASF) (Proc Natl Acad Sci USA. 2013 Mar. 26; 110(13):5052-7.).
# Briefly, compounds are serially diluted in DMSO (working dilutions). ASF-coated 384well plates are supplemented with 22.8 μL/well of biotinylated hGal-3 or hGal-1 in assay buffer (i.e. 300-1000 ng/mL biotinylated hGal-3 or hGal-1) to which 1.2 μL of compound working dilutions are added and mixed.
# as §2, §3
# [2] = Gal-3 inhibition, Table 4, read-out: IC50
# [3] = Table 13, hGal-3, read-out: IC50 (Gal-3 inhibition)
# [4] = Gal-3 inhibition, Table 5, read-out: IC50
# [5] = Table 11, hGal-3, read-out: IC50 (Gal-3 inhibition)
# Sequence of human Gal-1 (hGal-1) (P09382 whole entry): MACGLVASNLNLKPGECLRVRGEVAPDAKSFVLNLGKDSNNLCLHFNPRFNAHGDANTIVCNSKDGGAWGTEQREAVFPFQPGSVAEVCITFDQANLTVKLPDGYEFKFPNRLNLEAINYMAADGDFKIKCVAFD
# Sequence of biotinylated human Gal-3 (hGal-3) (P17931 whole entry): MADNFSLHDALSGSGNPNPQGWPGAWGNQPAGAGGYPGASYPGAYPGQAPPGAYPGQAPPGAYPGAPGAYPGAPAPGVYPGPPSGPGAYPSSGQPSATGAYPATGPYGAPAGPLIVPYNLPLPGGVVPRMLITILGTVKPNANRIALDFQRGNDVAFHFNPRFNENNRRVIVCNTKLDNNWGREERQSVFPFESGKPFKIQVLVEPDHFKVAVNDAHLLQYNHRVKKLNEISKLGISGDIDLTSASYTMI
Molecule,IC50 (human Gal-1 (hGal-1)) [µM],"IC50 [1, 4] [µM]",other results
"CC1CCN1C(=O)C(S[C@@H]1O[C@H](CO)[C@H](O)[C@H](n2cc(-c3cc(F)c(F)c(F)c3)nn2)[C@H]1O)C1(O)CCOCC1 (stereo partly drawn) [Example 2.41.204., 2-(((2S,3R,4S,5R,6R)-3,5-Dihydroxy-6-(hydroxymethyl)-4-(4-(3,4,5-trifluorophenyl)-1H-1,2,3-triazol-1-yl)tetrahydro-2H-pyran-2-yl)thio)-2-(4-hydroxytetrahydro-2H-pyran-4-yl)-1-(2-methylazetidin-1-yl)ethan-1-one]",0.95,–,"IC50 [1, 2]: 0.21 µM"
CN(C(=O)[C@H](S[C@@H]1O[C@H](CO)[C@H](O)[C@H](n2cc(-c3cc(F)c(F)c(F)c3)nn2)[C@H]1O)C1(O)CCOCC1)c1ccccn1 [Example 2.41.233R.],9.8,–,"IC50 ([1]; Table 9, hGal-3, read-out: IC50 (Gal-3 inhibition)): 8.5 µM"
"CCN(CC)C(=O)C(S[C@@H]1O[C@H](CO)[C@H](O)[C@H](n2cc(-c3cc(F)c(F)c(F)c3)nn2)[C@H]1O)C1(O)CCOCC1 (stereo partly drawn) [Example 2.41.202., 2-(((2S,3R,4S,5R,6R)-3,5-Dihydroxy-6-(hydroxymethyl)-4-(4-(3,4,5-trifluorophenyl)-1H-1,2,3-triazol-1-yl)tetrahydro-2H-pyran-2-yl)thio)-N,N-diethyl-2-(4-hydroxytetrahydro-2H-pyran-4-yl)acetamide]",0.11,–,"IC50 [1, 2]: 0.05 µM"
"CO[C@@H]1[C@@H](n2cc(-c3cc(F)c(F)c(F)c3)nn2)[C@@H](O)[C@@H](CO)O[C@H]1SC(C(=O)N1CCC(F)(F)CC1)C1(O)CCC2(CC1)COC2 (stereo partly drawn) [Example 2.70.226.I., 1-(4,4-Difluoropiperidin-1-yl)-2-(((2S,3R,4S,5R,6R)-5-hydroxy-6-(hydroxymethyl)-3-methoxy-4-(4-(3,4,5-trifluorophenyl)-1H-1,2,3-triazol-1-yl)tetrahydro-2H-pyran-2-yl)thio)-2-(7-hydroxy-2-oxaspiro[3.5]nonan-7-yl)ethan-1-one]",0.2,–,"IC50 [1, 3]: 0.11 µM"
"CN(CC(C)(C)C)C(=O)C(S[C@@H]1O[C@H](CO)[C@H](O)[C@H](n2cc(-c3cc(F)c(F)c(F)c3)nn2)[C@H]1O)C1(O)CCCC1 (stereo partly drawn) [Example 2.38.228., 2-(((2S,3R,4S,5R,6R)-3,5-Dihydroxy-6-(hydroxymethyl)-4-(4-(3,4,5-trifluorophenyl)-1H-1,2,3-triazol-1-yl)tetrahydro-2H-pyran-2-yl)thio)-2-(1-hydroxycyclopentyl)-N-methyl-N-neopentylacetamide]",0.17,0.15,–
"CCO[C@@H]1[C@@H](n2cc(-c3cc(F)c(F)c(F)c3)nn2)[C@@H](O)[C@@H](CO)O[C@H]1SC(C(=O)N1CCC(F)(F)CC1)C1(O)CCC(F)(F)CC1 (stereo partly drawn) [Example 2.44.226.II., 2-(4,4-Difluoro-1-hydroxycyclohexyl)-1-(4,4-difluoropiperidin-1-yl)-2-(((2S,3R,4S,5R,6R)-3-ethoxy-5-hydroxy-6-(hydroxymethyl)-4-(4-(3,4,5-trifluorophenyl)-1H-1,2,3-triazol-1-yl)tetrahydro-2H-pyran-2-yl)thio)ethan-1-one]",0.1,–,"IC50 ([1]; Gal-3 inhibition, Table 14, read-out: IC50): 0.1 µM"
"CC(C)(O)C(S[C@@H]1O[C@H](CO)[C@H](O)[C@H](n2cc(-c3cc(F)c(F)c(F)c3)nn2)[C@H]1O)C(=O)N1CCCCC1 (stereo partly drawn) [Example 2.31.208., 2-(((2S,3R,4S,5R,6R)-3,5-Dihydroxy-6-(hydroxymethyl)-4-(4-(3,4,5-trifluorophenyl)-1H-1,2,3-triazol-1-yl)tetrahydro-2H-pyran-2-yl)thio)-3-hydroxy-3-methyl-1-(piperidin-1-yl)butan-1-one]",0.03,–,"IC50 ([1]; Table 6, hGal-3, read-out: IC50 (Gal-3 inhibition)): 0.07 µM"
"CN(CC1CCCC1)C(=O)[C@H](S[C@@H]1O[C@H](CO)[C@H](O)[C@H](n2cc(-c3cc(F)c(F)c(F)c3)nn2)[C@H]1O)C1(O)CCOCC1 [Example 2.41.212., (R)-N-(cyclopentylmethyl)-2-(((2S,3R,4S,5R,6R)-3,5-dihydroxy-6-(hydroxymethyl)-4-(4-(3,4,5-trifluorophenyl)-1H-1,2,3-triazol-1-yl)tetrahydro-2H-pyran-2-yl)thio)-2-(4-hydroxytetrahydro-2H-pyran-4-yl)-N-methylacetamide]",0.2,–,"IC50 [1, 2]: 0.08 µM"
"CO[C@@H]1[C@@H](n2cc(-c3cc(F)c(F)c(F)c3)nn2)[C@@H](O)[C@@H](CO)O[C@H]1S[C@@H](C(=O)N1CCC(F)(F)CC1)C1(O)CCC2(CCCC2)CC1 [Example 2.71.226R.I., (R)-1-(4,4-Difluoropiperidin-1-yl)-2-(((2S,3R,4S,5R,6R)-5-hydroxy-6-(hydroxymethyl)-3-methoxy-4-(4-(3,4,5-trifluorophenyl)-1H-1,2,3-triazol-1-yl)tetrahydro-2H-pyran-2-yl)thio)-2-(8-hydroxyspiro[4.5]decan-8-yl)ethan-1-one]",1.1,–,"IC50 [1, 3]: 0.67 µM"
"CN(CC(F)(F)F)C(=O)C(S[C@@H]1O[C@H](CO)[C@H](O)[C@H](n2cc(-c3cc(F)c(F)c(F)c3)nn2)[C@H]1O)C1(O)CCOCC1 (stereo partly drawn) [Example 2.41.219., 2-(((2S,3R,4S,5R,6R)-3,5-Dihydroxy-6-(hydroxymethyl)-4-(4-(3,4,5-trifluorophenyl)-1H-1,2,3-triazol-1-yl)tetrahydro-2H-pyran-2-yl)thio)-2-(4-hydroxytetrahydro-2H-pyran-4-yl)-N-methyl-N-(2,2,2-trifluoroethyl)acetamide]",0.21,0.11,–
"CCN(C)C(=O)C(S[C@@H]1O[C@H](CO)[C@H](O)[C@H](n2cc(-c3cc(C)cc(F)c3)nn2)[C@H]1O)C1(O)CCOCC1 (stereo partly drawn) [Example 20.41.203., N-ethyl-2-(((2S,3R,4S,5R,6R)-4-(4-(3-Fluoro-5-methylphenyl)-1H-1,2,3-triazol-1-yl)-3,5-dihydroxy-6-(hydroxymethyl)tetrahydro-2H-pyran-2-yl)thio)-2-(4-hydroxytetrahydro-2H-pyran-4-yl)-N-methylacetamide]",0.18,–,"IC50 [1, 5]: 0.06 µM"
"CN(C(=O)C(S[C@@H]1O[C@H](CO)[C@H](O)[C@H](n2cc(-c3cc(F)c(F)c(F)c3)nn2)[C@H]1O)C1(O)CCCC1)C1CCC1 (stereo partly drawn) [Example 2.38.220., N-Cyclobutyl-2-(((2S,3R,4S,5R,6R)-3,5-dihydroxy-6-(hydroxymethyl)-4-(4-(3,4,5-trifluorophenyl)-1H-1,2,3-triazol-1-yl)tetrahydro-2H-pyran-2-yl)thio)-2-(1-hydroxycyclopentyl)-N-methylacetamide]",0.02,0.03,–
"CN(CC1CC1)C(=O)[C@@H](S[C@@H]1O[C@H](CO)[C@H](O)[C@H](n2cc(-c3cc(F)c(F)c(F)c3)nn2)[C@H]1O)C1(O)CCC(F)(F)CC1 [Example 2.44.218S., (S)-N-(Cyclopropylmethyl)-2-(4,4-difluoro-1-hydroxycyclohexyl)-2-(((2S,3R,4S,5R,6R)-3,5-dihydroxy-6-(hydroxymethyl)-4-(4-(3,4,5-trifluorophenyl)-1H-1,2,3-triazol-1-yl)tetrahydro-2H-pyran-2-yl)thio)-N-methylacetamide]",0.04,0.05,–
"CN(CC(F)(F)F)C(=O)C(S[C@@H]1O[C@H](CO)[C@H](O)[C@H](n2cc(-c3cc(F)c(F)c(F)c3)nn2)[C@H]1O)C1(O)CCC1 (stereo partly drawn) [Example 2.34.219., 2-(((2S,3R,4S,5R,6R)-3,5-Dihydroxy-6-(hydroxymethyl)-4-(4-(3,4,5-trifluorophenyl)-1H-1,2,3-triazol-1-yl)tetrahydro-2H-pyran-2-yl)thio)-2-(1-hydroxycyclobutyl)-N-methyl-N-(2,2,2-trifluoroethyl)acetamide]",0.64,0.26,–
"CCN(C)C(=O)C(S[C@@H]1O[C@H](CO)[C@H](O)[C@H](n2cc(-c3cc(F)c(Br)c(F)c3)nn2)[C@H]1O)C1(O)CCOCC1 (stereo partly drawn) [Example 18.41.203., 2-(((2S,3R,4S,5R,6R)-4-(4-(4-Bromo-3,5-difluorophenyl)-1H-1,2,3-triazol-1-yl)-3,5-dihydroxy-6-(hydroxymethyl)tetrahydro-2H-pyran-2-yl)thio)-N-ethyl-2-(4-hydroxytetrahydro-2H-pyran-4-yl)-N-methylacetamide]",0.35,–,"IC50 [1, 5]: 0.04 µM"
"2-(4,4-Difluoro-1-hydroxycyclohexyl)-2-(((2S,3R,4S,5R,6R)-3,5-dihydroxy-6-(hydroxymethyl)-4-(4-(3,4,5-trifluorophenyl)-1H-1,2,3-triazol-1-yl)tetrahydro-2H-pyran-2-yl)thio)-N-ethyl-N-methylacetamide [Example 2.44.203.]",0.14,0.06,–
